# Measured values: patent US20150218654A1, “METHODS FOR PREDICTING MULTIPLE MYELOMA TREATMENT RESPONSE” (INSERM (INSTITUT NATIONAL DE LA SANTÉ ET DE LA RE- CHERCHE …, priority 2012, published 2015)
# Like-named read-outs stand apart in the source and are kept apart here.
# Legend:
# [1] = system: human myeloma cell lines (HMCLs); assay: Growth assay for myeloma cells (Cell Titer Glo, 4 days, graded DNMTi concentrations); format: cell-based; conditions: for IC50: Homo sapiens, 96 h, 4 days
# Description: HMCLs were cultured for 4 days in 96-well flat-bottom microtiter plates in RPMI 1640 medium, 10% FCS, 2 ng/ml IL-6 culture medium (control), with graded decitabine concentrations. Data are mean values plus or minus standard deviation (SD) of 5 experiments determined on sextuplet culture wells.
# HMCLs were cultured for 4 days in 96-well flat-bottom microtiter plates in RPMI 1640 medium, 10% FCS, 2 ng/ml IL-6 culture medium (control), and graded 5-azacitidine concentrations. Data are mean values plus or minus standard deviation (SD) of 5 experiments determined on sextuplet culture wells.
# HMCLs were cultured for 4 days in 96-well flat-bottom microtiter plates in RPMI 1640 medium, 10% FCS, 2 ng/ml IL-6 culture medium (control), with graded decitabine concentrations. Cell growth was evaluated by quantifying intracellular ATP amount with a Cell Titer Glo Luminescent Assay (Promega, Madison, Wis.) with a Centro LB 960 luminometer (Berthold Technologies, Bad Wildbad, Germany).
# The inventors sought to determine whether DM Score could predict for the sensitivity of 10 HMCLs to DNMT inhibitor. Starting from a large cohort of 40 HMCLs (22), the 10 HMCLs with the highest or lowest DM Score were selected to assay decitabine sensitivity.
# HMCLs were cultured with graded 5-azacitidine (Sigma, St. Louis, Mo.) concentrations. HMCLs cell growth was quantified with a Cell Titer Glo Luminescent Assay (Promega, Madison, Wis.) and half inhibitory concentration (IC50) was determined using GraphPad Prism (http://www.graphpad.com/scientific-software/prism/).
# [2] = system: HMCLs XG-5, XG-6, XG-7, XG-20 and LP1; conditions: 0.5 μM, 7 days, 5 HMCLs
# Description: Control cells were cultured in the same conditions without adding drug. […] Biotinylated cRNA was amplified with a double in vitro transcription and hybridized to the human U133 2.0 plus GeneChips, according to the manufacturer's instructions (Affymetrix, Santa Clara, Calif.). Fluorescence intensities were quantified and analyzed using the GECOS software (Affymetrix). Gene expression data were normalized with the MASS algorithm and analyzed with inventor's bioinformatics platforms-RAGE (http://[…] Amazonia (http://amazonia.[…] /) (36)-or SAM (Significance Analysis of Microarrays) software (37). The statistical significance of differences in overall survival between groups of patients was calculated by the log-rank test. Multivariate analysis was performed using the Cox proportional hazards model. Survival curves were plotted using the Kaplan-Meier method. All these analyses have been done with R.2.10.1 (http://www.r-project.org/) and bioconductor version 2.5. Gene annotation and networks were generated through the use of Ingenuity Pathways Analysis (Ingenuity® Systems, Redwood City, Calif.) (38).
smiles,measurement,setting,value
"Nc1ncn([C@H]2C[C@H](O)[C@@H](CO)O2)c(=O)n1 [decitabine, 5-Aza-2′-deoxycytidine]",fold higher decitabine sensitivity,"[1]; HMCLs with highest DM Score versus low DM Score, P=0.01",11 fold
same,IC50,"[1]; decitabine, 5 HMCLs with low DM Score, read-out: IC50 range",2.92 to 60.8 µM
same,IC50,"[1]; read-out: IC50 range, decitabine, 5 HMCLs with the highest DM Score",0.15 to 2.22 µM
same,IC50,"[1]; read-out: median IC50, decitabine, 5 HMCLs with low DM Score",7.94 µM
same,IC50,"[1]; read-out: median IC50, decitabine, 5 HMCLs with the highest DM Score",0.68 µM
same,sensitivity class of HMCLs,"[1]; XG6, XG20, XG13, SKMM2, LP1 (lowest DM Score)",Resistant
same,sensitivity class of HMCLs,"[1]; XG12, XG16, XG19, JJN3, RPMI8226 (highest DM Score)",Sensitive
same,number of genes downregulated,[2]; FDR <5%,79 genes
same,number of genes significantly upregulated,[2]; FDR <5%,48 genes
same,Ratio 226719_at (CDNA FLJ34899 fis),[2]; treated vs control,0.53
same,Ratio 227755_at (CDNA FLJ42435 fis),[2]; treated vs control,0.53
same,Ratio 229969_at (Transcribed locus),[2]; treated vs control,0.41
same,Ratio 230570_at (Transcribed locus),[2]; treated vs control,0.37
same,Ratio 244623_at (Transcribed locus),[2]; treated vs control,0.39
same,Ratio ACRC (238825_at),[2]; treated vs control,25.99
same,Ratio ADFP (209122_at),[2]; treated vs control,3.70
same,Ratio AIG1 (223136_at),[2]; treated vs control,0.41
same,Ratio ALDH1L2 (231202_at),[2]; treated vs control,0.45
same,Ratio ARHGAP9 (224451_x_at),[2]; treated vs control,0.38
same,Ratio ATP1B1 (201243_s_at),[2]; treated vs control,3.43
same,Ratio C6orf48 (220755_s_at),[2]; treated vs control,0.49
same,Ratio C10orf57 (222545_s_at),[2]; treated vs control,0.56
same,Ratio C12orf5 (219099_at),[2]; treated vs control,2.16
same,Ratio C17orf27 (230000_at),[2]; treated vs control,2.41
same,Ratio C20orf118 (235964_x_at),[2]; treated vs control,2.12
same,Ratio CADPS2 (219572_at),[2]; treated vs control,0.37
same,Ratio CBS (212816_s_at),[2]; treated vs control,0.41
same,Ratio CBX4 (227558_at),[2]; treated vs control,0.49
same,Ratio CCPG1 (214152_at),[2]; treated vs control,0.44
same,Ratio COP1 (1552701_a_at),[2]; treated vs control,2.34
same,Ratio COPB2 (213500_at),[2]; treated vs control,0.58
same,Ratio CORO1A (209083_at),[2]; treated vs control,2.38
same,Ratio CT45-2 (235700_at),[2]; treated vs control,30.39
same,Ratio CTAGE5 (215930_s_at),[2]; treated vs control,0.30
same,Ratio CTBS (218923_at),[2]; treated vs control,0.42
same,Ratio DHCR7 (201791_s_at),[2]; treated vs control,0.45
same,Ratio DKFZP586A0522 (207761_s_at),[2]; treated vs control,2.97
same,Ratio DNAJB9 (1554462_a_at),[2]; treated vs control,0.42
same,Ratio DPYD (204646_at),[2]; treated vs control,0.48
same,Ratio DYRK4 (212954_at),[2]; treated vs control,0.42
same,Ratio EAF2 (219551_at),[2]; treated vs control,0.46
same,Ratio EIF2C2 (222294_s_at),[2]; treated vs control,0.52
same,Ratio EIF2S2 (208725_at),[2]; treated vs control,0.46
same,Ratio ELF4 (31845_at),[2]; treated vs control,1.75
same,Ratio ELL2 (226982_at),[2]; treated vs control,0.45
same,Ratio EPSTI1 (227609_at),[2]; treated vs control,1.99
same,Ratio ERN1 (235745_at),[2]; treated vs control,0.35
same,Ratio FKBP11 (219118_at),[2]; treated vs control,0.38
same,Ratio FLJ22028 (219802_at),[2]; treated vs control,0.44
same,Ratio FNDC3A (202304_at),[2]; treated vs control,0.40
same,Ratio G1P2 (205483_s_at),[2]; treated vs control,2.77
same,Ratio GALNT3 (203397_s_at),[2]; treated vs control,0.65
same,Ratio GLS (203157_s_at),[2]; treated vs control,0.42
same,Ratio GNG7 (228831_s_at),[2]; treated vs control,0.33
same,Ratio GOLPH3L (218361_at),[2]; treated vs control,0.45
same,Ratio GSK3B (226183_at),[2]; treated vs control,0.49
same,Ratio GSN (200696_s_at),[2]; treated vs control,3.97
same,Ratio H2-ALPHA (216323_x_at),[2]; treated vs control,2.56
same,Ratio HBS1L (209314_s_at),[2]; treated vs control,0.53
same,Ratio HEXIM1 (202814_s_at),[2]; treated vs control,2.18
same,Ratio HIST1H2BG (210387_at),[2]; treated vs control,2.00
same,Ratio HLA-DPA1 (211990_at),[2]; treated vs control,1.70
same,Ratio HN1 (217755_at),[2]; treated vs control,2.17
same,Ratio ID2 (201565_s_at),[2]; treated vs control,2.76
same,Ratio IDH1 (1555037_a_at),[2]; treated vs control,0.53
same,Ratio IER3 (201631_s_at),[2]; treated vs control,3.97
same,Ratio IFI27 (202411_at),[2]; treated vs control,2.84
same,Ratio IFI35 (209417_s_at),[2]; treated vs control,1.93
same,Ratio IFRD1 (202146_at),[2]; treated vs control,0.51
same,Ratio IGF1 (209541_at),[2]; treated vs control,0.43
same,Ratio IL21R (221658_s_at),[2]; treated vs control,0.50
same,Ratio INHBE (210587_at),[2]; treated vs control,0.55
same,Ratio INSIG1 (201625_s_at),[2]; treated vs control,0.34
same,Ratio ITGB7 (205718_at),[2]; treated vs control,2.11
same,Ratio KIAA0776 (212633_at),[2]; treated vs control,0.49
same,Ratio KIAA1509 (215343_at),[2]; treated vs control,2.21
same,Ratio KIF21B (204411_at),[2]; treated vs control,0.53
same,Ratio LOC220930 (229090_at),[2]; treated vs control,0.45
same,Ratio LRP16 (219188_s_at),[2]; treated vs control,0.36
same,Ratio MAGEA9 (210437_at),[2]; treated vs control,1.68
same,Ratio MAN1A1 (221760_at),[2]; treated vs control,0.43
same,Ratio MANEA (222805_at),[2]; treated vs control,0.51
same,Ratio MGC15875 (232488_at),[2]; treated vs control,0.55
same,Ratio MIRN21 (224917_at),[2]; treated vs control,1.99
same,Ratio MLLT11 (211071_s_at),[2]; treated vs control,2.53
same,Ratio MTHFD1L (225520_at),[2]; treated vs control,0.41
same,Ratio MUC1 (207847_s_at),[2]; treated vs control,2.92
same,Ratio MX1 (202086_at),[2]; treated vs control,1.73
same,Ratio MYLIP (223129_x_at),[2]; treated vs control,2.00
same,Ratio NFE2L1 (214179_s_at),[2]; treated vs control,0.59
same,Ratio NMES1 (223484_at),[2]; treated vs control,23.96
same,Ratio NMI (203964_at),[2]; treated vs control,1.86
same,Ratio NQO1 (201468_s_at),[2]; treated vs control,2.15
same,Ratio OAS1 (205552_s_at),[2]; treated vs control,1.65
same,Ratio OPN1SW (229549_at),[2]; treated vs control,0.40
same,Ratio PARP12 (218543_s_at),[2]; treated vs control,1.92
same,Ratio PCK2 (202847_at),[2]; treated vs control,0.47
same,Ratio PGM3 (221788_at),[2]; treated vs control,0.49
same,Ratio PHGDH (201397_at),[2]; treated vs control,0.36
same,Ratio PLAC1 (219702_at),[2]; treated vs control,0.42
same,Ratio PPAPDC1B (223569_at),[2]; treated vs control,0.42
same,Ratio PSCDBP (209606_at),[2]; treated vs control,0.48
same,Ratio PSPH (205194_at),[2]; treated vs control,0.38
same,Ratio RECQL (213878_at),[2]; treated vs control,0.44
same,Ratio RPL37 (224763_at),[2]; treated vs control,0.35
same,Ratio SAMD9 (228531_at),[2]; treated vs control,2.06
same,Ratio SCD (200831_s_at),[2]; treated vs control,0.39
same,Ratio SEC24D (202375_at),[2]; treated vs control,0.31
same,Ratio SEC63 (201915_at),[2]; treated vs control,0.51
same,Ratio SEL1L (202061_s_at),[2]; treated vs control,0.56
same,Ratio SESN2 (223195_s_at),[2]; treated vs control,0.47
same,Ratio SFN (33322_i_at),[2]; treated vs control,4.34
same,Ratio SLAMF7 (222838_at),[2]; treated vs control,0.51
same,Ratio SLC1A4 (209610_s_at),[2]; treated vs control,0.54
same,Ratio SLC1A5 (208916_at),[2]; treated vs control,0.40
same,Ratio SLC7A11 (209921_at),[2]; treated vs control,0.41
same,Ratio SNTB1 (226438_at),[2]; treated vs control,0.36
same,Ratio SP110 (208012_x_at),[2]; treated vs control,2.11
same,Ratio SSR3 (217790_s_at),[2]; treated vs control,0.40
same,Ratio STAT1 (209969_s_at),[2]; treated vs control,2.55
same,Ratio STCH (202558_s_at),[2]; treated vs control,0.47
same,Ratio STK17A (202693_s_at),[2]; treated vs control,2.52
same,Ratio SULT1A3 (210580_x_at),[2]; treated vs control,2.52
same,Ratio TBC1D16 (222116_s_at),[2]; treated vs control,0.70
same,Ratio TKTL1 (214183_s_at),[2]; treated vs control,85.24
same,Ratio TMEM39A (222690_s_at),[2]; treated vs control,0.46
same,Ratio TMEM49 (1569003_at),[2]; treated vs control,2.33
same,Ratio TPST2 (204079_at),[2]; treated vs control,2.20
same,Ratio TRIB3 (218145_at),[2]; treated vs control,0.41
same,Ratio TSC22D3 (208763_s_at),[2]; treated vs control,0.53
same,Ratio TUBA2 (210527_x_at),[2]; treated vs control,2.50
same,Ratio TUBA3 (209118_s_at),[2]; treated vs control,2.23
same,Ratio TUBB2 (204141_at),[2]; treated vs control,5.07
same,Ratio TUBE1 (226181_at),[2]; treated vs control,0.38
same,Ratio ZNF275 (225382_at),[2]; treated vs control,0.35
same,Ratio ZNF706 (227132_at),[2]; treated vs control,0.49
